Experimental data taken from PMC7426938, “Induction of mitochondria-mediated apoptosis and suppression of tumor growth in zebrafish xenograft model by cyclic dipeptides identified from Exiguobacterium acetylicum” (Scientific Reports, 2020).

What was measured:
[1] = tested on: Bid protein in HT-29 cells; assay: Western blot, Bid protein; assay type: cell-based, human; details: for Bid protein expression up-regulation: 200 μM, 24 h, vs untreated group
Description: Total protein was isolated from HT-29 cells by using lysis buffer. Cells were collected by centrifugation at 1,500 rpm for 5 min. After that, cell pellets were re-suspended with RIPA lysis buffer consisting of 1 mM protease inhibitor cocktail (PIC; Sigma-Aldrich; P8340) and lysed at […] for 1 h. After incubation, the protein was obtained by centrifugation at 13,000 × g for 15 min and kept for − 80 °C until analysis. Also, mitochondrial and cytosolic fractions were obtained by using fraction lysis buffer as described previously[50] with minor modifications. Lysed cells were kept in ice for 10 min and then cells were triturated by a 27 gauge syringe (25 strokes) to become homogeneous followed by centrifugation at 13,000 × g for 30 min. The collected supernatant was the cytosolic fraction. After the pellet was washed with lysis buffer and it was dissolved in lysis buffer for protein quantification. Protein concentration was measured by Pierce BCA protein assay kit (Thermo Scientific Laboratories, Rockford, USA) according to the manufacturer instructions. Equal amounts of proteins from all samples were separated by 10% SDS–polyacrylamide gel electrophoresis (SDS-PAGE) and electrotransferred. Polyvinylidene difluoride (PVDF) membrane was blocked with 5% skimmed milk for 1 h, followed by incubation with primary (Cytochrome-c: sc-13560; Bid: sc-11423; COX-IV: #4850; 1:2000; GAPDH: #3683; 1:10,000) and HRP-conjugated secondary (Got Anti-mouse IgG: 20102; Got anti-rabbit IgG: 20202: 1:10,000) antibodies against specific proteins. The protein signals were detected by Enhanced Chemiluminescence (ECL) detection kit (Amersham Piscataway, NJ, USA). The protein expression levels were analyzed by measuring the intensity of the band from scanned films using Image-J software. GAPDH and COX-IV served as a housekeeping protein to normalize the expression levels.

[2] = tested on: Cytc (Cytochrome-c) mRNA in HT-29 cells; assay: sqRT-PCR gene expression, Cytc; assay type: cell-based, human; details: 200 μM, 24 h, vs untreated cells
Description: (§1) Total RNA was isolated from HT-29 cells using the TRIzol reagent (TaKara, Japan) following the manufacturer’s instruction. The quantity and quality of each RNA sample were analyzed with a NanoDrop-1000 (Thermo Fisher Scientific, USA), followed by conversion to cDNA using RevertAid cDNA synthesis kit (Thermo Fisher Scientific, CA, USA) using 1 μg of mRNA to synthesize cDNA. Semi-quantitative reverse transcriptase-polymerase chain (sqRT-PCR) reaction was carried out in a Veriti Thermal Cycler (Applied Biosystems, CA, USA) using 2X Taq DNA polymerase Master Mix RED (Ampliqon, Denmark, Germany) as we previously described method. All sqRT-PCRs were run for at least three times. GAPDH served as a housekeeping gene to normalize the expression levels. The expression levels were analyzed by measuring the intensity of the band from the gel using Image-J software.

[3] = tested on: Colorectal cancer HT-29 cells; assay: MTT cell viability assay, HT-29; assay type: cell-based; details: Homo sapiens; for viability at 125 µM: 24 h treatment, read-out: relative percentage viability of HT-29 cells; for IC50: 24 h, MTT, read-out: HT-29 cells inhibitory (IC50) dose
Description: Human colorectal cancer (HT-29) and mouse embryonic fibroblast (3T3) cells were obtained from the American Type Culture Collection Centre (ATCC, VA, USA). Both cells were grown in Dulbecco Modified Eagle's Medium (DMEM, HiMedia, India) supplemented with 10% heat-inactivated fetal bovine serum (FBS), penicillin (50 units/mL), and streptomycin (50 µg/mL) and were cultured at 37 °C, 5% CO2 in a humidified atmosphere.
Cytotoxicity of the identified those DKPs were determined by cell viability study with the MTT (3-(4, 5-dimethylthiazol-2yl)-2, 5-diphenyltetrazolium bromide) reduction assay[49]. Briefly, 1.5 × 10^4 cells/well (HT-29) and 1.7 × 10^4 cells/well (3T3) cells were seeded into 96-well plates. They were incubated for 24 h at 37 °C with 5% CO2 and 95% relative humidity atmosphere. After 24 h, identified DKPs were added different concentrations (12.5 to 200 µM) into culture media in triplicates and re-incubated under the same culture conditions mentioned above. The final concentration of DMSO solution was 0.25% in the cells served as a negative control. Then culture media was removed from the plates, and 100 μL of freshly prepared MTT solution in serum-free medium (5 mg/mL) was added to each well and further incubated for 4 h. After that, 150 μL of DMSO solution was added under dark conditions and kept for 30 min at room temperature. The absorbance of the formazan product was measured at 595 nm in the microplate reader (Imark, Biorad). The percentage viability of the cells was measured by using the formula: Cell viability (%) = [(test/control) × 100)].
Results were expressed as mean ± standard deviation (SD). Data were analyzed one-way analysis of variance (ANOVA), followed by Student’s two-tailed t-test for comparison between two groups and Dunnett’s t-test was used when the data involved three or more groups. A value of p < 0.05 was considered statistically significant. All statistical analyses and inhibitory concentration (IC50) were determined by graph-pad prism statistical software (San Diego, CA, USA).

zebrafish (ABiC) embryos = assay: Zebrafish embryo developmental toxicity assay; assay type: in vivo, zebrafish (Danio rerio); design: unit not given here
Description: Laboratory animal care principles were followed and experimental procedures were conducted following guidelines established by the Institutional Animal Care, and Use Committee (IACUC), and every effort was made to minimize suffering. This study was approved by the IACUC of the Kaohsiung Medical University, Kaohsiung, Taiwan (Approval No: KMU-IACUC-105213). The wild-type (ABiC strain) zebrafish (Danio rerio) were maintained at 28 °C on a 14 h/10 h light/dark cycle under standard circulating water systems and fed with hatched brine shrimp. Embryos were obtained by natural mating male fish with female fish (2:3) in a water tank and eggs were maintained in a plastic Petri dish containing ad libitum water. After 4 h incubation, embryos were randomly divided into five experimental groups (control (without treatment), sham/vehicle control (DMSO), and three treatment groups for each cyclic dipeptide. Each group had 45 embryos per test dosage. All DKPs were tested at different doses varied from 50, 100 and 200 μM, respectively. After drug treatment, embryos were maintained in an incubator at 28 °C. The survival rate and embryonic developmental changes were observed by using an inverted microscope every 24 h interval for 96 h (Nikon Eclipse TE2000-U, Tokyo, Jap).

[4] = tested on: Casp-3 (Caspase-3) mRNA in HT-29 cells; assay: sqRT-PCR gene expression, Casp-3; assay type: cell-based, human; details: 200 μM, 24 h, vs untreated cells
Description: as §1

Row | Compound | Bid protein expression level ([1]; 100 μM, vs control and 200 μM) | Cytc gene expression up-regulation [2] [fold] | viability at 125 µM [3] [%] | IC50 [3] [µM] | Mean survival rate of zebrafish embryos (zebrafish (ABiC) embryos; 24 hpf, 50 μM) | Mean survival rate of zebrafish embryos (zebrafish (ABiC) embryos; 24 hpf, 100 μM) | Mean survival rate of zebrafish embryos (zebrafish (ABiC) embryos; 24 hpf, 200 μM) | Mean survival rate of zebrafish embryos (zebrafish (ABiC) embryos; 48 hpf, 50 μM) | Mean survival rate of zebrafish embryos (zebrafish (ABiC) embryos; 48 hpf, 100 μM) | Mean survival rate of zebrafish embryos (zebrafish (ABiC) embryos; 48 hpf, 200 μM) | Mean survival rate of zebrafish embryos (zebrafish (ABiC) embryos; 72 hpf, 50 μM) | Mean survival rate of zebrafish embryos (zebrafish (ABiC) embryos; 72 hpf, 200 μM) | Mean survival rate of zebrafish embryos (zebrafish (ABiC) embryos; 96 hpf, 50 μM) | Mean survival rate of zebrafish embryos (zebrafish (ABiC) embryos; 96 hpf, 100 μM) | Mean survival rate of zebrafish embryos (zebrafish (ABiC) embryos; 96 hpf, 200 μM) | Casp-3 gene expression up-regulation [4] [fold] | Bid protein expression up-regulation [1] [fold] | Mean survival rate of zebrafish embryos (zebrafish (ABiC) embryos; 72 hpf, 100 μM)
1 | O=C1N[C@@H](Cc2ccc(O)cc2)C(=O)N2CCC[C@@H]12 [DKP-4, cyclo (L-Pro-L-Tyr)] | increased the expression level of Bid | 3.62 | 42.1 ± 2.94 | 98 | 79 ± 3.96 | 82 ± 2.96 | 71.55 ± 5.12 | 79 ± 3.96 | 81 ± 2.96 | 70.34 ± 3.33 | 75.51 ± 3.32 | 70.54 ± 3.51 | 71.11 ± 2.44 | 79.3 ± 2.77 | 68.24 ± 5.89 | 2.73 |  | 
2 | CC(C)C[C@@H]1NC(=O)[C@@H]2CCCN2C1=O [DKP-1, cyclo (L-Pro-L-Leu)] |  | 2.32 | 36.3 ± 5.08 | 100 | 70.88 ± 3.44 | 73.33 ± 5.96 | 75 ± 5.77 | 70.88 ± 5.96 | 71.11 ± 1.54 | 73.33 ± 3.32 | 71.11 ± 3.44 | 68.88 ± 6.91 | 66.66 ± 5.96 | 71.11 ± 9.10 | 66.66 ± 5.96 | 2.32 | 1.32 | 71.11 ± 5.55
3 | O=C1N[C@@H](Cc2ccccc2)C(=O)N2CCC[C@@H]12 [DKP-3, cyclo (L-Pro-L-Phe)] |  | 4.29 | 34.7 ± 4.03 | 85.2 | 80 ± 5.96 | 80 ± 5.96 | 75.55 ± 4.12 | 80 ± 5.96 | 80 ± 5.96 | 75.55 ± 4.12 | 77.77 ± 9.10 | 73.33 ± 5.96 | 68.88 ± 6.88 | 80 ± 5.96 | 69.22 ± 12 | 1.76 | 1.76 | 80 ± 5.96
4 | CC(C)[C@@H]1NC(=O)[C@@H]2CCCN2C1=O [DKP-2, cyclo (L-Pro-L-Val)] |  | 1.78 | 42.3 ± 2.25 | 118 | 77.77 ± 5.41 | 82.22 ± 4.41 | 75.55 ± 3.44 | 80 ± 5.96 | 80 ± 5.96 | 75.55 ± 3.44 | 68.88 ± 3.44 | 71.11 ± 6.88 | 66.66 ± 5.96 | 71.11 ± 9.10 | 66.66 ± 5.96 | 1.31 | 1.21 | 77.33 ± 3.44
